Reference: ChEMBL document CHEMBL4382205, “Tryptophan 2,3-dioxygenase inhibitory activities of tryptanthrin derivatives” (Eur J Med Chem, 2018)

What was measured:
[1] = molecular target: Indoleamine 2,3-dioxygenase 1 (Homo sapiens, UniProt P14902); test: Inhibition of IDO1 (unknown origin)
[2] = molecular target: T1, Tryptophan 2,3-dioxygenase (Homo sapiens, UniProt P48775); test: Inhibition of TDO (unknown origin)
[3] = molecular target: T1, Tryptophan 2,3-dioxygenase; test: Inhibition of recombinant full length C-terminal His-tagged human TDO expressed in Escherichia coli using L-Trp as substrate after 30 mins
[4] = molecular target: T1, Tryptophan 2,3-dioxygenase; test: Inhibition of TDO in human U87 MG cells using L-Trp as substrate after 8 hrs; format: cell-based, U-87MG ATCC
[5] = molecular target: T1, Tryptophan 2,3-dioxygenase; test: Uncompetitive inhibition of recombinant full length C-terminal His-tagged human TDO expressed in Escherichia coli using L-Trp as substrate after 30 mins by Dixon plot analysis
[6] = molecular target: T1, Tryptophan 2,3-dioxygenase; test: Inhibition of TDO (unknown origin) expressed in HEK293 cells using L-Trp as substrate after 8 hrs; format: cell-based
[7] = molecular target: T1, Tryptophan 2,3-dioxygenase; test: Mixed type […] inhibition of recombinant full length C-terminal His-tagged human TDO expressed in Escherichia coli using L-Trp as substrate after 30 mins by Dixon plot analysis
Homo sapiens = species: Homo sapiens; test: Selectivity ratio of IC50 for IDO1 (unknown origin) to IC50 for recombinant full length C-terminal His-tagged human TDO

T1 sequence (P48775 whole entry): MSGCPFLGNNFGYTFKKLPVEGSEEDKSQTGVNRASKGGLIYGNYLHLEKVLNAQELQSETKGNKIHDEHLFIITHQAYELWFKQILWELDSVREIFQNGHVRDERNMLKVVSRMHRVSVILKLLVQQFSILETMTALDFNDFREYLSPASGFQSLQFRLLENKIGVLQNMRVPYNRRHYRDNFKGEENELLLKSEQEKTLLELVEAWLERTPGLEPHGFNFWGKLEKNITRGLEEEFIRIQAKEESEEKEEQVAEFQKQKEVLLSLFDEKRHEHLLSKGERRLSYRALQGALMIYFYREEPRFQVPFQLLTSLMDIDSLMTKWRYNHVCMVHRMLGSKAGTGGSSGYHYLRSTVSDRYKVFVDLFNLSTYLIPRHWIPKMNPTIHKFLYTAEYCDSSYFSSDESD
Indoleamine 2,3-dioxygenase 1, sequence (P14902 whole entry): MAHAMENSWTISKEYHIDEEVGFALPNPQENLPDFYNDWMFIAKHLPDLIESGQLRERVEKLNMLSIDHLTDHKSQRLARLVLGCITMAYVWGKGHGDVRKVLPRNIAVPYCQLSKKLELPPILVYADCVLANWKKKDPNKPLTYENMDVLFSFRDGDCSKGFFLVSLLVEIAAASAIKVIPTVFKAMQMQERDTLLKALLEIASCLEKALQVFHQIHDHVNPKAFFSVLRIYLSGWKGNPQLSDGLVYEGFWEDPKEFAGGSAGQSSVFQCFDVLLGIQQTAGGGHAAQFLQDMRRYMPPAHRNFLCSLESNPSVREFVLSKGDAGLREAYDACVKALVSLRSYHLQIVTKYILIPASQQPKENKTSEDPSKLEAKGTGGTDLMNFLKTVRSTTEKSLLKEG

| SMILES | Ki [1] [nM] | Ki [2] [nM] | IC50 [3] [nM] | IC50 [4] [nM] | Ki [5] [nM] | IC50 [6] [nM] | Ki [7] [nM] | Ratio IC50 (Homo sapiens) |
| --- | --- | --- | --- | --- | --- | --- | --- | --- |
| O=C1c2cc(O)c(O)cc2OC(c2ccc(O)c(O)c2)C1O (centres undefined) | > 100000 | 16000 |  |  |  |  |  |  |
| O=C1c2c(Cl)cccc2-n2c1nc1ccccc1c2=O |  |  | 44800 | 227 | 8410 | 229 |  |  |
| O=C1c2ccc(Cl)cc2-n2c1nc1ccccc1c2=O |  |  | 224000 | 957 |  | 733 | 42700 |  |
| O=C1c2ccccc2-n2c1nc1ccccc1c2=O [TRYPTANTHRIN] |  |  | 3940 | 194 | 581 | 140 |  |  |
| O=C1c2cc(F)ccc2-n2c1nc1ccccc1c2=O |  |  | 937 | 60 | 336 | 68 |  |  |
| Cc1ccc2c(c1)C(=O)c1nc3ccccc3c(=O)n1-2 |  |  | 3230 | 184 |  | 215 | 834 | 38 |
| O=C1c2ccccc2-n2c1nc1ccc(F)cc1c2=O |  |  | 9810 | 503 |  | 241 | 876 | 88 |
| O=C1c2cc(Br)ccc2-n2c1nc1ccccc1c2=O |  |  | 937 | 54 | 356 | 53 |  |  |
| O=C1c2cc([N+](=O)[O-])ccc2-n2c1nc1ccccc1c2=O |  |  | 101 | 40 | 215 | 61 |  |  |
| NS(=O)(=O)NCCNc1nonc1C(=NO)Nc1ccc(F)c(Br)c1 [EPACADOSTAT] |  |  | 64500 | 260 | 21700 | 242 |  |  |
| O=C1c2cc(F)ccc2-n2c1nc1ccc(F)cc1c2=O |  |  | 1490 | 62 |  | 59 | 1000 |  |
